Measurements from paper PMC8041284, “Tunable Methacrylamides for Covalent Ligand Directed Release Chemistry” (Journal of the American Chemical Society, 2021).
Read-outs that look alike come from different tables or passages of the source.

Target: BTK (Homo sapiens, UniProt Q06187)
Experiment: biochemical
[1] = read-out: BTK inhibition (%), 0.75 uM BTK, […] probe 3l, 15 min preincubation

Sequence of BTK (Q06187 402-655 limits assumed): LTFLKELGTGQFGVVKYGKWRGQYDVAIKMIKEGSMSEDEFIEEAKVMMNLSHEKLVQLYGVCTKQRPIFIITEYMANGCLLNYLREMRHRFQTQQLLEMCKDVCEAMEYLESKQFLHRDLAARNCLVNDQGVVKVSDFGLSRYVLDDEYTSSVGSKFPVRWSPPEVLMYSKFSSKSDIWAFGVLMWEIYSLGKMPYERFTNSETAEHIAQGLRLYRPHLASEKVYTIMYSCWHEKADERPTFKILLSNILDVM

inhibition at 10 µM [1] [%] | SMILES | inhibition at 10 µM (read-out: BTK inhibition (%)) [%]
7.8 | C[N+]1(C)CCC[C@H]1C(=O)[O-] [PCM-0214966] | –
-13.9 | COc1cc(C=O)c([N+](=O)[O-])cc1OC [PCM-0216182] | –
-9.7 | COc1ccc(F)c(F)c1C(=O)c1cnc(NC2CCN(S(C)(=O)=O)CC2)nc1N [PCM-0095383] | –
9.3 | CN(C)Cc1ccc(S(=O)(=O)n2ccc(/C=C/C(=O)NO)c2)cc1 [PCM-0214759] | –
-15.2 | C[C@@H](Nc1cc(F)cc(F)c1)c1cc(C(=O)N(C)C)cc2c(=O)cc(N3CCOCC3)oc12 [PCM-0215502] | –
-20.8 | CCNC(=O)C[C@@H]1N=C(c2ccc(Cl)cc2)c2cc(OC)ccc2-n2c(C)nnc21 [PCM-0215230] | –
13.8 | NC1(Cc2ccc(Cl)cc2)CCN(c2ncnc3[nH]ccc23)CC1 [PCM-0095516] | –
16.2 | COc1cc(C(=O)N(CCCc2ccccc2)Cc2ccc(CC(=O)O)cc2)cc(OC)c1C [PCM-0215725] | –
-22.6 | C=C[C@H]1CN2CC[C@H]1C[C@H]2[C@H](O)c1ccnc2ccc(OC)cc12 [PCM-0004959] | –
7.7 | COc1ccc(S(=O)(=O)Nc2nc(-c3cccc([N+](=O)[O-])c3)cs2)cc1OC [PCM-0215595] | –
-14.8 | CO[C@H]1C(=O)[C@]2(C)[C@@H](OC)C[C@H]3OC[C@@]3(OC(C)=O)[C@H]2[C@H](OC(=O)c2ccccc2)[C@]2(O)C[C@H](OC(=O)[C@H](O)[C@@H](NC(=O)OC(C)(C)C)c3ccccc3)C(C)=C1C2(C)C [PCM-0214715] | –
-0.8 | COC(=O)C1=CO[C@@H](O[C@@H]2O[C@H](CO)[C@@H](O)[C@H](O)[C@H]2O)[C@@H]2[C@@]3(C)O[C@H]3[C@@H](O)[C@]12O [PCM-0216309] | –
-2.3 | COc1ccc(/C=C/c2cc(OC)cc(=O)o2)cc1 [PCM-0216316] | –
– | CCC1(O)C(=O)OCc2c1cc1n(c2=O)Cc2cc3cc(O)ccc3nc2-1 (stereo not shown) [PCM-0094873] | 6.2
-3.1 | CC1(C)OC[C@@H](COC(=O)CCc2ccc(OC[C@@H](O)CNCCNC(=O)N3CCOCC3)cc2)O1 [PCM-0216254] | –
-16.2 | CCOC(=O)c1cc2ccccc2oc1=O [PCM-0216280] | –
-13.2 | C/C(=C\CNc1ncnc2nc[nH]c12)CO [PCM-0215137] | –
– | S=C=Nc1cccc(NC(=S)NCCCCNC(=S)Nc2cccc(N=C=S)c2)c1 [PCM-0095477] | 38.9
17.2 | COc1c(C)c(C(=O)c2ccc(N)c(C(=O)O)c2)n2ccccc12 [PCM-0215263] | –
-16.3 | COc1cc(C(C)=O)ccc1OCCCN1CCC(c2noc3cc(F)ccc23)CC1 [PCM-0095163] | –
-24.7 | c1ccc(-c2nn3c(c2-c2ccnc4cc(OCCN5CCOCC5)ccc24)CCC3)nc1 [PCM-0095413] | –
22.6 | COc1cc(F)c(C(C)C)cc1-c1ccc(C(F)(F)F)cc1CN1C(=O)O[C@H](c2cc(C(F)(F)F)cc(C(F)(F)F)c2)[C@@H]1C [PCM-0095486] | –
7.6 | CCn1c(=O)c(-c2ccn[nH]2)cc2c(C)nc(N)nc21 [PCM-0215577] | –
15.4 | c1cncc(-c2cn[nH]n2)c1 [PCM-0215871] | –
9 | CCCN=C1S/C(=C\c2ccc(OC[C@H](O)CO)c(Cl)c2)C(=O)N1c1ccccc1C [PCM-0215632] | –

inhibition at 10 µM [1] [%] | SMILES | inhibition at 10 µM (read-out: BTK inhibition (%)) [%]
-2.3 | COc1ccc(-c2cnc3c(-c4cccc5ncccc45)cnn3c2)cc1 [PCM-0215297] | –
32.4 | O=C(NN=Cc1ccc(O)c(O)c1)c1cc2ccccc2cc1O [PCM-0215235] | –
4.6 | COc1ccc(C[C@@H]2c3cc(Oc4cc(C[C@@H]5c6cc(OC)c(OC)cc6CCN5C)ccc4O)c(OC)cc3CCN2C)cc1 [PCM-0215948] | –
-5.5 | CC[C@H](Nc1ncnc2nc[nH]c12)c1nc2cccc(F)c2c(=O)n1-c1ccccc1 [PCM-0095266] | –
-8.5 | O=C(CSc1nc2c(c(=O)n1-c1ccccc1)SCC2)Nc1ccc(-c2ccccc2)cn1 [PCM-0215278] | –
4.8 | NC(=O)c1ncn([C@@H]2O[C@H](CO)[C@@H](O)[C@H]2O)c1N [PCM-0095118] | –
19.3 | COc1c(C)c2c(c(O)c1C/C=C(\C)CCC(=O)O)C(=O)OC2 [PCM-0090203] | –
-3.1 | CCC[C@H](NC(=O)[C@@H]1[C@H]2CCC[C@H]2CN1C(=O)[C@@H](NC(=O)[C@@H](NC(=O)c1cnccn1)C1CCCCC1)C(C)(C)C)C(=O)C(=O)NC1CC1 [PCM-0214791] | –
6.2 | CN1C(=O)[C@@H](NC(=O)c2n[nH]c(Cc3ccccc3)n2)COc2ccccc21 [PCM-0215843] | –
1.7 | CC(C(=O)O)c1ccc(CC2CCCC2=O)cc1 (stereo not shown) [PCM-0065463] | –
10 | O=C(NO)c1cccc(C(=O)NCCc2ccccc2)c1 [PCM-0215456] | –
5.4 | O=C(c1cncc(Br)c1)N1CCC(N2CCCC2)CC1 [PCM-0095791] | –
18.6 | COc1cc2ncnc(Nc3ccc(F)c(Cl)c3)c2cc1NC(=O)/C=C/CN1CCCCC1 [PCM-0095444] | –
17.8 | C=C(C)[C@@H]1CC[C@]2(C(=O)O)CC[C@]3(C)[C@H](CC[C@@H]4[C@@]5(C)CC[C@H](OC(=O)CC(C)(C)C(=O)O)C(C)(C)[C@@H]5CC[C@]43C)[C@@H]12 [PCM-0216605] | –
-16.6 | Cc1ccc2nc(NCCN)c3ncc(C)n3c2c1 [PCM-0215260] | –
2.3 | NNC(=O)c1ccncc1 [PCM-0085769] | –
-14 | CCCCCCOC(=O)NC(=N)c1ccc(NCc2nc3cc(C(=O)N(CCC(=O)OCC)c4ccccn4)ccc3n2C)cc1 [PCM-0214664] | –
-24.7 | C[C@H](C[C@H](O)[C@H]1OC1(C)C)C1=C2C[C@H](O)[C@H]3[C@@]4(C)CCC(=O)C(C)(C)[C@@H]4CC[C@]3(C)[C@@]2(C)CC1 [PCM-0216518] | –
10.1 | CCOC(=O)/C=C\C(=O)OCC [PCM-0215691] | –
-39.7 | O=C(O)CCCCC(CCSCc1ccccc1)SCc1ccccc1 (stereo not shown) [PCM-0095341] | –
-1.6 | C=C1C(=O)[C@]23[C@H](O)[C@H]1CC[C@H]2[C@@]12CO[C@]3(O)[C@@H](O)[C@@H]1C(C)(C)CC[C@@H]2O [PCM-0214681] | –
-3.1 | COc1cc(-c2cn(C)c(=O)c3cnccc23)cc(OC)c1CN(C)C [PCM-0215650] | –
-10.8 | O=C(c1ccc(C(=O)N2CCC(N3CCCC3)CC2)c(Nc2ccccc2)c1)N1CCC(N2CCCC2)CC1 [PCM-0095781] | –
-6.2 | CCOc1cc(N2CCC(O)CC2)ccc1Nc1ncc2c(n1)N(C)c1ccccc1C(=O)N2C [PCM-0095769] | –
-70 | COc1ccc2ccc(=O)oc2c1CC=C(C)C [PCM-0094564] | –

inhibition at 10 µM [1] [%] | SMILES | inhibition at 10 µM (read-out: BTK inhibition (%)) [%]
15.9 | CN(C)c1nc(N(C)C)nc(N(C)C)n1 [PCM-0064404] | –
-11.6 | COc1ccccc1OCCN [PCM-0216626] | –
72.6 | Cc1ccc(NC(=O)Nc2cc(-c3ccccc3-c3nn[nH]n3)ccc2N(CC(C)C)CC(C)C)cc1 [PCM-0215955] | –
-6.2 | CC(=O)O[C@@H]1C[C@@]23C[C@@]24CC[C@H](O[C@@H]2OC[C@@H](O)[C@H](O)[C@H]2O)C(C)(C)[C@@H]4CC=C3[C@]2(C)C[C@@H]3OC4(C[C@@H](C)[C@@H]3[C@@]12C)OC(O)C1(C)OC41 (stereo partly shown) [PCM-0216175] | –
-4.1 | CCn1c(-c2nonc2N)nc2c(C#CC(C)(C)O)ncc(OC[C@H]3CCCNC3)c21 [PCM-0094908] | –
38.9 | CC(=O)O[C@]1(C(C)=O)CC[C@H]2[C@@H]3CCC4=CC(=O)CCC4=C3[C@@H](c3ccc(N(C)C)cc3)C[C@@]21C [PCM-0095563] | –
24.7 | CC(C)c1c(-c2ccccc2)nc2c(C#N)c[nH]n2c1=O [PCM-0215735] | –
16.3 | C[C@@H]1C(=O)O[C@H]2[C@@H](O)[C@@]34[C@H]5C[C@@H](C(C)(C)C)[C@]36[C@@H](OC(=O)[C@@H]6O)O[C@@]4(C(=O)O5)[C@@]12O [PCM-0214615] | –
31.1 | COC(=O)C1=C(C)NC(C)=C(C(=O)OCC(C)C)C1c1ccccc1[N+](=O)[O-] (stereo not shown) [PCM-0086426] | –
0 | CCN(CC)c1ccc(/C=N/NC(=O)c2ccc(O)cc2)cc1 [PCM-0216144] | –
-9.3 | COc1ccc2cc(C(=O)O)ccc2c1 [PCM-0216054] | –
31 | C#Cc1cccc(Nc2ncnc3cc(OCCOC)c(OCCO)cc23)c1 [PCM-0095242] | –
-17.1 | CC(=O)Nc1ccc(C(=O)Nc2ccccc2N)cc1 [PCM-0095432] | –
– | Cc1ccc(NC(=S)NNc2c([N+](=O)[O-])cc(C(F)(F)F)cc2[N+](=O)[O-])cc1Cl [PCM-0215660] | 90.3
100 | Clc1ccc(C(Cn2ccnc2)OCc2ccc(Sc3ccccc3)cc2)c(Cl)c1 (stereo not shown) [PCM-0095311] | –
5.1 | Cc1nn(C)c(COc2ccc(N3CCN(S(=O)(=O)N(C)C)CC3)cc2)c1-c1cccc2c(CCCOc3cccc4ccccc34)c(C(=O)O)n(CCN3CCOCC3)c12 [PCM-0215538] | –
-7.8 | NN1CC(=O)NC1=O [PCM-0216229] | –
10.1 | O=C(O)C1=C[C@@H](O)[C@@H](O)[C@H](O)C1 [PCM-0094809] | –
-24.1 | O=C(NCCO)c1cccc(-c2cc(Nc3ccc(OC(F)(F)F)cc3)ncn2)c1 [PCM-0213352] | –
-1.5 | Cc1cccc(-c2[nH]c(CNc3ccccc3F)nc2-c2ccc3ncnn3c2)n1 [PCM-0215382] | –
-4.3 | Cc1cccc(Nc2ccncc2S(=O)(=O)NC(=O)NC(C)C)c1 [PCM-0086313] | –
-0.8 | COc1ccc(CC(=O)O)cc1OC [PCM-0214949] | –
-16.3 | CC(C)(C)C(O)/C(=C\c1ccc(Cl)cc1)n1cncn1 (stereo not shown) [PCM-0214890] | –
-8.6 | CCCCCCCCC(=O)O [PCM-0216031] | –

SMILES | inhibition at 10 µM [1] [%] | inhibition at 10 µM (read-out: BTK inhibition (%)) [%]
C=C(C)[C@@H]1CC[C@]2(C(=O)O)CC[C@]3(C)[C@H](CC[C@@H]4[C@@]5(C)CC[C@H](O[C@@H]6OC[C@H](O)[C@H](O)[C@H]6O[C@@H]6O[C@@H](C)[C@H](O)[C@@H](O)[C@H]6O)[C@@](C)(CO)[C@@H]5CC[C@]43C)[C@@H]12 [PCM-0216514] | 34 | –
N[C@H]1C[C@@H]1c1ccccc1 [PCM-0095814] | -6.2 | –
